# Data from patent publication US11472798B2 (Mission Therapeutics Limited, priority 2014, dated 2022).
# Biological target: T1, UCHL1 (Homo sapiens, UniProt P09936)
# T1 construct: made in house; host or cells: HEK293T
# T1 sequence (P09936 1-223): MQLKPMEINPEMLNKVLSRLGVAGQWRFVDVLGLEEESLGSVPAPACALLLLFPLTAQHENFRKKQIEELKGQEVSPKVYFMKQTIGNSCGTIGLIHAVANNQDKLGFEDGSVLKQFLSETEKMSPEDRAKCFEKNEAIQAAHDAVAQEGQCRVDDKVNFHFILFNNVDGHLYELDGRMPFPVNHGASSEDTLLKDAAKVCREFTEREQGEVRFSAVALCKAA
# Experiment: UCHL1 biochemical IC50 assay (fluorescence polarisation)
# Settings: 30 min enzyme/compound pre-incubation at room temp, read after 2 hr incubation, read-out: Activity range (UCHL1 biochemical IC50 assay)
# In short: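 FLAG-UCHL1 purified from transfected HEK293T cells was preincubated 30 min at room temperature with compound (8 points, 100–0.03 μM final) in Tris pH 7.5 buffer with Tween 20, BSA and beta-mercaptoethanol. Reaction started with 50 nM TAMRA-peptide–ubiquitin isopeptide substrate; fluorescence polarisation (ex 540/em 590 nm) read at once and after 2 h.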
compound,measurement,value
"Cc1noc(C)c1-c1cc2sc(NC(=O)[C@H]3CCN(C#N)C3)nc2cn1 [Example 296, (S)-1-cyano-N-(6-(3,5-dimethylisoxazol-4-yl)thiazolo[4,5-c]pyridin-2-yl)pyrrolidine-3-carboxamide]",IC50,10 to 30 µM
"Cc1oncc1-c1cc(-c2ccnc(NC(=O)[C@H]3CCN(C#N)C3)c2)ccn1 [Example 297, (S)-1-cyano-N-(2′-(5-methylisoxazol-4-yl)-[4-4′-bipyridin]-2-yl)pyrrolidine-3-carboxamide]",IC50,< 1 µM
"Cc1nn(C)c2ccc(-n3cnc(NC(=O)[C@H]4CCN(C#N)C4)c3)cc12 [Example 298, (S)-1-cyano-N-(1-(1,3-dimethyl-1H-indazol-5-yl)-1H-imidazol-4-yl)pyrrolidine-3-carboxamide]",IC50,< 1 µM
"Cc1n[nH]c2cc(-n3cnc(NC(=O)[C@H]4CCN(C#N)C4)c3)ccc12 [Example 299, (S)-1-cyano-N-(1-(3-methyl-1H-indazol-6-yl)-1H-imidazol-4-yl)pyrrolidine-3-carboxamide]",IC50,< 1 µM
"N#CN1CC[C@H](C(=O)Nc2cn(-c3ccc4[nH]ncc4c3)cn2)C1 [Example 300, (S)-N-(1-(1H-indazol-5-yl)-1H-imidazol-4-yl)-1-cyanopyrrolidine-3-carboxamide]",IC50,< 1 µM
"N#CN1CC[C@H](C(=O)Nc2cn(-c3ccc4cn[nH]c4c3)cn2)C1 [Example 301, (S)-N-(1-(1H-indazol-6-yl)-1H-imidazol-4-yl)-1-cyanopyrrolidine-3-carboxamide]",IC50,< 1 µM
"COc1cc(-n2cnc(NC(=O)[C@H]3CCN(C#N)C3)c2)ccc1F [Example 302, (S)-1-cyano-N-(1-(4-fluoro-3-methoxyphenyl)-1H-imidazol-4-yl)pyrrolidine-3-carboxamide]",IC50,< 1 µM
"N#CN1CC[C@H](C(=O)Nc2cn(-c3cccc4[nH]ncc34)cn2)C1 [Example 303, (S)-N-(1-(1H-indazol-4-yl)-1H-imidazol-4-yl)-1-cyanopyrrolidine-3-carboxamide]",IC50,< 1 µM
"N#Cc1ccc(-n2cnc(NC(=O)[C@H]3CCN(C#N)C3)c2)cc1C1CC1 [Example 304, (S)-1-cyano-N-(1-(4-cyano-3-cyclopropylphenyl)-1H-imidazol-4-yl)pyrrolidine-3-carboxamide]",IC50,< 1 µM
"N#CN1CC[C@H](C(=O)Nc2cn(-c3ccnc4ccccc34)cn2)C1 [Example 305, (S)-1-cyano-N-(1-(quinolin-4-yl)-1H-imidazol-4-yl)pyrrolidine-3-carboxamide]",IC50,< 1 µM
"N#Cc1ccc(C2CC2)cc1-n1cnc(NC(=O)[C@H]2CCN(C#N)C2)c1 [Example 306, (S)-1-cyano-N-(1-(2-cyano-5-cyclopropylphenyl)-1H-imidazol-4-yl)pyrrolidine-3-carboxamide]",IC50,< 1 µM
"COc1cc(-n2cnc(NC(=O)[C@H]3CCN(C#N)C3)c2)ccc1C#N [Example 307, (S)-1-cyano-N-(1-(4-cyano-3-methoxyphenyl)-1H-imidazol-4-yl)pyrrolidine-3-carboxamide]",IC50,< 1 µM
"Cc1cc(-n2cnc(NC(=O)[C@H]3CCN(C#N)C3)c2)ccc1C#N [Example 308, (S)-1-cyano-N--(1-(4-cyano-3-methylphenyl)-1H-imidazol-4-yl)pyrrolidine-3-carboxamide]",IC50,< 1 µM
"N#Cc1ccc(-n2cnc(NC(=O)[C@H]3CCN(C#N)C3)c2)cc1C(F)(F)F [Example 309, (S)-1-cyano-N-(1-(4-cyano-3-(trifluoromethyl)phenyl)-1H-imidazol-4-yl)pyrrolidine-3-carboxamide]",IC50,< 1 µM
"N#Cc1ccc(-n2cnc(NC(=O)[C@H]3CCN(C#N)C3)c2)cc1OC(F)(F)F [Example 310, (S)-1-cyano-N-(1-(4-cyano-3-(trifluoromethoxy)phenyl)-1H-imidazol-4-yl)pyrrolidine-3-carboxamide]",IC50,< 1 µM
(S)-1-cyano-N-(isoquinolin-yl)pyrrolidine-3-carboxamide [Example 58],IC50,1 to 10 µM
